# Measurements published in article PMC11727121, “Intrinsic PD‐L1 Degradation Induced by a Novel Self‐Assembling Hexapeptide for Enhanced Cancer Immunotherapy” (Advanced Science, 2024).
# Square brackets hold non-standard residues; d marks the D form. Ends that are not written are not given here. Peptide text beside a SMILES is read from it. Met(O) = CS(=O)CC[C@H](N)C(=O)O
# Legend:
# PD-L1 [1] = experiment: Western blot analysis of PD-L1 expression in MC38 cells; format: cell-based, mouse; conditions: compared to PBS control
# Procedure: (§1) In vitro Immunogenic Cell Death Assay […]
# (§2) presence of DAMPs within indicated treatments were examined by calreticulin (CRT) and high mobility group box 1 protein (HMGB1) expression level. Firstly, 5 × 104 […]
# (§3) And then, fixed with 4% formaldehyde for 30 min at room temperature, and washed twice with PBS. A blocking solution of 10% goat serum was added to the wells and incubated for 50 min to minimize nonspecific antibody adsorption. The cells were treated with primary antibodies overnight at 4 ℃, subsequently, stained with FITC -labeled secondary antibodies for 2 h, followed by mounting solution with DAPI, images captured by fluorescence microscopy (Leica DMI3000B). The fluorescence intensity was analyzed using Image J.
# (§4) Western Blotting Analysis
# (§5) Cellular proteins were extracted with the lysis buffer containing 8 M urea, 0.05 M Tris-HCl (pH 7.5), 1% β-Mercaptoethanol, 1% protease inhibitor, and 1% phosphatase inhibitor, while tumor protein was extracted with the medium RIPA lysis buffer containing 1% protease inhibitor and 1% phosphatase inhibitors by 1-minute ultrasonication, then kept on ice for 30 minutes and microcentrifugated at 12,000 g for 15 minutes at 4 ℃ to remove debris. Immunoblotting was performed using 30 µg and 50 μg of protein lysates from cells and tumors, respectively . […]
# PD-L1 [2] = experiment: Western blot analysis of PD-L1 expression in 4T1 cells; format: cell-based, mouse
# Procedure: as §1, §2, §3, §4, §5
# 4T1 cells [3] = experiment: In vitro immunogenic cell death assay (CRT, HMGB1); format: cell-based, mouse; conditions: 12 h, fluorescence staining
# Procedure: as §1, §2, §3, §4, §5
# MC38 tumor = experiment: In vivo antitumor study in MC38 tumor-bearing mice; conditions: MC38 model, peritumoral, MTX 1.5 mg/kg, MET 69.5 mg/kg equivalents, day 0 and 3, n = 5
# 4T1 cells [4] = experiment: Cell apoptosis assay by flow cytometry (Annexin V / PI); format: cell-based, mouse; conditions: 24 h, 5 µM MTX or equivalent, absence of H2O2
# Procedure: In Vitro Cell Cytotoxicity and Cell Apoptosis Assay […]
# plates at a density of 2 × 10^5 cells/well.
# Following incubation, all cells were harvested and
# stained with Annexin V and propidium iodide (PI) according to the manufacturer's
# protocol. Apoptosis was immediately analyzed using flow cytometry.
# MC38 cells = experiment: MTT cytotoxicity assay, MC38 cells; format: cell-based, mouse; conditions: 24 h
# Procedure: (§6) In Vitro Cell Cytotoxicity and Cell Apoptosis Assay
# (§7) The cytotoxicity of KFM and KFMo were assessed as follows. Briefly, 4T1, MC38 and HUVEC cells were seeded on 96-well plate (5000 cells per well) overnight.
# (§8) The cells were incubated with 100 µL fresh DMEM containing with various concentration of for 24 h, respectively. Moreover, the 4T1 and MC38 tumor cells co- […]
# (§9) cells viability was evaluated using the MTT assay.
# (§10) Subsequently, the cells at a density of 1 × 104 were cultivated into 96-well plate and then cultured with or without H2O2 (5 µM or 100 µM) for 24 h. The cells viability was evaluated using the MTT assay. […]
# 4T1 cells [5] = experiment: MTT cytotoxicity assay, 4T1 cells; format: cell-based, mouse; conditions: 24 h
# Procedure: as §6, §7, §8, §9, §10
# HUVEC cells = experiment: MTT cytotoxicity assay, HUVEC cells; format: cell-based, Human; conditions: 24 h
# Procedure: as §6, §7, §8, §9, §10
compound,measurement,setting,value
"CN(C)C(=N)N=C(N)N [MET, metformin]","PD-L1 expression (Western blot), in words",PD-L1 [1],reduced
same,"PD-L1 expression (Western blot), in words",PD-L1 [2],reduced
"O=C1c2c(O)ccc(O)c2C(=O)c2c(NCCNCCO)ccc(NCCNCCO)c21 [MTX, mitoxantrone]","CRT expression compared to PBS control, in words",4T1 cells [3],marked increase
same,tumor growth,MC38 tumor,partially slowed tumor growth
same,percentage of apoptotic cells,4T1 cells [4],61.3%
same,cytotoxicity of MTX formulations (MTT),MC38 cells; without H2O2,dose‐dependent cytotoxicity
same,cytotoxicity of MTX formulations (MTT),4T1 cells [5]; without H2O2,dose‐dependent cytotoxicity
"KFMFMK-NH2 [KFM, Lys‐Phe‐Met‐Phe‐Met‐Lys]",cytotoxicity of peptide (MTT),MC38 cells,negligible cytotoxicity
same,cytotoxicity of peptide (MTT),HUVEC cells,negligible cytotoxicity
same,cytotoxicity of peptide (MTT),4T1 cells [5],negligible cytotoxicity
C[S+]([O-])CC[C@H](NC(=O)[C@H](Cc1ccccc1)NC(=O)[C@H](CC[S+](C)[O-])NC(=O)[C@H](Cc1ccccc1)NC(=O)[C@@H](N)CCCCN)C(=O)N[C@@H](CCCCN)C(N)=O (stereo partly shown) [KFM°] (H-KF[Met(O)]F[Met(O)]K-NH2),cytotoxicity of peptide (MTT),MC38 cells,negligible cytotoxicity
same,cytotoxicity of peptide (MTT),HUVEC cells,negligible cytotoxicity
same,cytotoxicity of peptide (MTT),4T1 cells [5],negligible cytotoxicity
